Our source for the Km values is paper PMC10992195, “Identification, heterologous expression and characterization of a new unspecific peroxygenase from Marasmius fiardii PR-910” (Bioresources and Bioprocessing, 2024).

Where a name gives a salt, the structure may show the parent alone. Read-outs that look alike come from different tables or passages of the source.

Assay [1] concerns T1, rMfiUPO.
T1 construct: gene MfiUPO
The following applies: 2 mM H2O2 co-substrate; 30 °C; optimal pH (pH 4.0 optimum in text; pH 4.5 sodium citrate in Fig. 4 legend).

Assay [2] relates to T2, rMfiUPO.
T2 construct: gene MfiUPO; full-length codon-optimised gene with native signal peptide, secreted by Pichia pastoris X33 (pPICZ-A); purified, glycosylated, 40-55 kDa smear, about 35 kDa after Endo H; short-type UPO, heme-thiolate
The experiment in a line: spectrophotometric 4-nitrocatechol formation, […] nm, Michaelis-Menten fit. It counts as biochemical, Marasmius fiardii PR-910. The following applies: 2 mM H2O2 co-substrate; 30 °C; pH 7.0 potassium phosphate.

Assay [3] deals with T2, rMfiUPO. The experiment in a line: spectrophotometric veratraldehyde formation, […] nm, Michaelis-Menten fit. It counts as biochemical, Marasmius fiardii PR-910. Particulars: 2 mM H2O2 co-substrate; 30 °C; pH 6.0 potassium phosphate.

As usually defined, the Km is the substrate concentration at which the rate is half of its maximum. Consider `CCn1c(=NN=c2sc3cc(S(=O)(=O)O)ccc3n2CC)sc2cc(S(=O)(=O)O)ccc21` [ABTS, 2,2ʹ-azinobis (3-ethylbenzothiazoline-6-sulfonic acid) diammonium salt], for which, in the assay on rMfiUPO [1], the Km turned out to be 22 ± 7 µM.
Turning to `O=[N+]([O-])c1ccc2c(c1)OCO2` [NBD, 5-nitro-1,3-benzodioxole], the Km in the assay on rMfiUPO [2] came out at 93 ± 14 µM.
On to `COc1ccc(CO)cc1OC` [VA], for which the Km in the assay on rMfiUPO [3] was determined as 392 ± 109 µM.
